# The source made the active and inactive calls.
# Experiments:
# [1] = cytotoxicity toward MDA-MB-231 breast cancer cells – cell-based, CellTiter-Glo luminescence, cherry-pick, cytotoxicity control for RAD54 inhibitor project, dose response (AID 651692); format: functional
# [2] = target: T1, DNA repair and recombination protein RAD54-like (Homo sapiens, UniProt Q92698); test: RAD54 Holliday junction migration blockers – biochemical, fluorescence, cherry-picked samples, dose series, confirmation (AID 651657); format: functional
# T1 sequence (Q92698 whole entry): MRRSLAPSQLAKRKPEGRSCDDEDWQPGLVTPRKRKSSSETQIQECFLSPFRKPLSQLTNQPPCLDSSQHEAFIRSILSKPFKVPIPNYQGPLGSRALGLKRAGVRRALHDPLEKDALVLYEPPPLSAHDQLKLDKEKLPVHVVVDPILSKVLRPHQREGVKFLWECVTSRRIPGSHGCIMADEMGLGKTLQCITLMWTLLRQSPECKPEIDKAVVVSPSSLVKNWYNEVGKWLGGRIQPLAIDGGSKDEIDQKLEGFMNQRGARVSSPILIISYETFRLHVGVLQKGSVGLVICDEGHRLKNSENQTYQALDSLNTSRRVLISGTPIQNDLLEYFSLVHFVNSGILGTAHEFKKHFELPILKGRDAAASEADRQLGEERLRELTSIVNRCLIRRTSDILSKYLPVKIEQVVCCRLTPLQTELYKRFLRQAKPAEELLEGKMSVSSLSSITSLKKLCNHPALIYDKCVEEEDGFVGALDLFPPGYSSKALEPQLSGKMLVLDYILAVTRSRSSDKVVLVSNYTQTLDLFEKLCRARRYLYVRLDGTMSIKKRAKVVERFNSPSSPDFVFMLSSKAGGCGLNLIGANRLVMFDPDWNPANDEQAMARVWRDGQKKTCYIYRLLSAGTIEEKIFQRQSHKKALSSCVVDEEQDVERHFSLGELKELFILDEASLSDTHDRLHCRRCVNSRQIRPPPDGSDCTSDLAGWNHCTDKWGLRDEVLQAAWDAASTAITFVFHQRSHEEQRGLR
# [3] = target: DNA repair protein RAD52 homolog (Homo sapiens, UniProt P43351); format: functional, biochemical
# [4] = target: Nuclear receptor subfamily 5 group A member 2 (Homo sapiens, UniProt O00482); format: functional, cell-based;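 note: HEK293T cells transfected with LRH-1 and a StAR promoter luciferase reporter; potency for inhibitors that lower LRH-1 driven reporter light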
# [5] = target: Steroidogenic factor 1 (Homo sapiens, UniProt Q13285); test: Counterscreen for inverse agonists of the liver receptor homolog-1 (LRH-1; NR5A2): Luminescence-based cell-based high throughput dose response assay to identify inverse agonists of the Steroidogenic Factor 1 Nuclear Receptor (SF1; NR5A1).; format: functional
# [6] = nonselective StAR promoter luciferase inhibitors – cell-based, luminescence, luciferase reporter, counter-screen for LRH-1 inverse agonist project, dose response (AID 651969); format: functional
# [7] = target: Beta-lactamase (Pseudomonas aeruginosa, UniProt Q79MP6);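 note: biochemical dose-response test of metallo-beta-lactamase enzyme inhibition, read out by epi-absorbance; purified recombinant IMP-1 metallo-beta-lactamase with nitrocefin as substrate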
# [8] = target: Beta-lactamase (Salmonella choleraesuis (strain SC-B67), UniProt Q5J463)
# [9] = target: Low molecular weight phosphotyrosine protein phosphatase (Homo sapiens, UniProt P24666); format: functional; conditions: read-out: IC50_Mean;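 note: Dose-response confirmation assay measuring inhibition of LMPTP enzyme activity by fluorescence intensity read-out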
# [10] = target: T2, Tyrosine-protein phosphatase non-receptor type 22 (Homo sapiens, UniProt Q9Y2R2); test: PTPN22 enzyme inhibitors – biochemical, fluorescence, LYP catalytic domain, selectivity assay for LMPTP inhibitor project, dose response (AID 652006); format: functional; conditions: read-out: IC50_Mean
# T2 sequence (Q9Y2R2 whole entry): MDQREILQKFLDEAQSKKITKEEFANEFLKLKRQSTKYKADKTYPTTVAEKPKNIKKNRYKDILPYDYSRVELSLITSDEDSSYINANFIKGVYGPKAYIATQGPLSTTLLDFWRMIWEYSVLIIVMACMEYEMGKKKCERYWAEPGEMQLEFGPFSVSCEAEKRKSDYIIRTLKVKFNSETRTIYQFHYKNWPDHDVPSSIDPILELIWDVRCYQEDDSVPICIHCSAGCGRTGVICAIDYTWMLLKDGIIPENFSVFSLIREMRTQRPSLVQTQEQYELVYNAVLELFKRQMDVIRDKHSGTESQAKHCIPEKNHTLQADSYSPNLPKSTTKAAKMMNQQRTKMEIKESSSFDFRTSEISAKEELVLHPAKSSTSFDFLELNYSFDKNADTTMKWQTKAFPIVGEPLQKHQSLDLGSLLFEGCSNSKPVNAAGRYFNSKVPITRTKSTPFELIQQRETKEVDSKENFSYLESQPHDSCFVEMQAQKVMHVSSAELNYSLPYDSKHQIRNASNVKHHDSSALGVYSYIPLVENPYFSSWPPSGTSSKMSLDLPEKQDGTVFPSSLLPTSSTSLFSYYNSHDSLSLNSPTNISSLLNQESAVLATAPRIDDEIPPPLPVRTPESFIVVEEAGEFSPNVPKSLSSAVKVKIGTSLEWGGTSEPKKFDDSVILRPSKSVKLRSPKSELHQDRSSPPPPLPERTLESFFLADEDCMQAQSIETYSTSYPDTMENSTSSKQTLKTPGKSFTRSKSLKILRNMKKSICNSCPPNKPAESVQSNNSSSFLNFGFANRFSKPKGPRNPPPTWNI
# [11] = viability loss in HEK293T cells – cell-based, cherry-picks, cytotoxicity control for HIV Vif inhibitor project, dose response (AID 652208); format: functional
# [12] = target: T3, Corticotropin-releasing factor receptor 2/Corticotropin-releasing factor-binding protein (Homo sapiens, UniProt P24387+Q13324); test: Dose Response confirmation of uHTS hits for small molecule antagonists of the CRF-binding protein and CRF-R2 receptor complex.; format: functional; conditions: read-out: IC50_Mean
# T3 sequence (Q13324 whole entry): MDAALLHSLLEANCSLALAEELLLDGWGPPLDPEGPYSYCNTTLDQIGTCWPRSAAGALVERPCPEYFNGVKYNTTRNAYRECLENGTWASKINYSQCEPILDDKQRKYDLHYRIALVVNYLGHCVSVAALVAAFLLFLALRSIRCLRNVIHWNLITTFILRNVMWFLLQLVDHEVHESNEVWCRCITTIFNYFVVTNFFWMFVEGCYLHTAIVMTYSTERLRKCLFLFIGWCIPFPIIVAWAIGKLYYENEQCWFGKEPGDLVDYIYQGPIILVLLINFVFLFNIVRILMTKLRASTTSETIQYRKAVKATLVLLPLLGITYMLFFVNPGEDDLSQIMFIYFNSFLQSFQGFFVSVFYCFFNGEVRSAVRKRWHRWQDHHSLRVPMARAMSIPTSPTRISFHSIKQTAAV
# T3 sequence (P24387 whole entry): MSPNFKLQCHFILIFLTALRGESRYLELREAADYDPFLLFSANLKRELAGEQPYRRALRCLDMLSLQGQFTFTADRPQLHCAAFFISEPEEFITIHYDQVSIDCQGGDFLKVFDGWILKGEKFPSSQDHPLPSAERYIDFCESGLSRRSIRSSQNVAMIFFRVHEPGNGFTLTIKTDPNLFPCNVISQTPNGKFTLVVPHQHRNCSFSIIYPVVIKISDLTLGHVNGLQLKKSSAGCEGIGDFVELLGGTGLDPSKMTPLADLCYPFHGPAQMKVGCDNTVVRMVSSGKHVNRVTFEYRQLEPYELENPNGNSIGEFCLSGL
# [13] = target: T3, Corticotropin-releasing factor receptor 2/Corticotropin-releasing factor-binding protein; test: activators of CRF receptor 2 with binding protein – uHTS hits, confirmation (AID 602473); format: functional; conditions: read-out: EC50_Mean
# [14] = blockers of CRF-binding protein–CRF-R2 complex – cell-based, uHTS hits, 384-well, dose response (AID 651639); format: functional, Homo sapiens; conditions: read-out: IC50_Mean
# [15] = target: T4, ATP-dependent translocase ABCB1 (Homo sapiens, UniProt P08183); test: inhibition of BCRP-mediated JC-1 efflux – Ig-MXP3 cells, flow cytometry, set 2, dose response (AID 504566); format: functional; conditions: read-out: EC50_MICROM_;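 note: flow cytometry median green fluorescence of retained JC-1 dye; potency of efflux pump inhibition measured as rising substrate retention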
# [16] = target: T4, ATP-dependent translocase ABCB1; test: P-gp JC-1 efflux blockade concentration-response – Jurkat-DNR cells, flow cytometry, set 2, dose response (AID 504569); format: functional; conditions: read-out: EC50_MICROM_;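 note: potency of pump inhibitors that raise cellular JC-1 green fluorescence up to the nicardipine level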
# [17] = Inhibition of T. cruzi Tulahuen strain amastigotes in L-6 muscle cells Measured in Cell-Based and Microorganism Combination System Using Plate Reader - 2138-03_Inhibitor_Dose_CherryPick_Activity.; format: functional; conditions: Rattus norvegicus, L6
# [18] = L6 myocyte viability loss – cell-based, plate reader, cherry-pick, cytotoxicity control, dose response (AID 651896); format: functional
# [19] = Inhibition of Plasmodium falciparum NF54 Measured in Cell-Based System Using Plate Reader - 2138-11_Inhibitor_Dose_CherryPick_Activity.; format: functional
# [20] = antileishmanial activity on axenic amastigotes – plate reader, cherry pick, dose response (AID 651891); format: functional, cell-based; conditions: Leishmania donovani
# [21] = intracellular Trypanosoma cruzi inhibitors in host cells – cell-based, plate reader, cherry-pick samples, set 3, dose response (AID 651818); format: functional;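 note: compounds incubated with infected cells for about four days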
# [22] = African trypanosome bloodstream form growth inhibition – STIB900 strain, plate reader, cherry pick, dose response (AID 651893); format: functional, cell-based, Trypanosoma brucei rhodesiense; conditions: Trypanosoma brucei
# [23] = reduction of Shn3 3'UTR-driven luciferase in osteoblasts – cell-based, Clone20 osteoblasts, firefly luciferase, cherry-picked, dose response (AID 624132); format: functional;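 note: firefly luciferase luminescence from reporter carrying the Shn3 3'UTR in osteoblasts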
# [24] = loss of viability in HepG2 cells – cell-based, CellTiter-Glo, cherry-picked, cytotoxicity control for Shn3 inhibitor project, dose response (AID 624134); format: functional
# [25] = non-specific 3'UTR reporter inhibition in Clone20-Shn3RL – cell-based, Renilla luciferase, cherry-picked, counter-screen for Shn3 inhibitor project, dose response (AID 624133); format: functional
# [26] = Fluorescence-based cell-based high throughput dose response assay for inhibitors of the interaction of nucleotide-binding oligomerization domain containing 2 (NOD2) and the receptor-interacting serine-threonine kinase 2 (RIPK2).; format: functional; conditions: Homo sapiens
# [27] = target: Beta Lactamase (Pseudomonas aeruginosa, UniProt Q932Y6); test: BLA reporter interference, concentration series – BLA reporter cells, FRET fluorescence, artefact control for NOD2-RIPK2 interaction inhibitor project, dose response (AID 651552); format: functional, cell-based
# [28] = target: Paired box protein Pax-8 (Homo sapiens, UniProt Q06710); test: PAX8 transcriptional activity inhibition in RMG-I – RMG-I cells, luciferase, cherry-pick, dose response (AID 687027); format: functional, cell-based;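 note: luciferase reporter driven by Pax8 target thyroperoxidase promoter measured by SteadyGlo luminescence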
# Sequence of Paired box protein Pax-8 (Q06710 whole entry): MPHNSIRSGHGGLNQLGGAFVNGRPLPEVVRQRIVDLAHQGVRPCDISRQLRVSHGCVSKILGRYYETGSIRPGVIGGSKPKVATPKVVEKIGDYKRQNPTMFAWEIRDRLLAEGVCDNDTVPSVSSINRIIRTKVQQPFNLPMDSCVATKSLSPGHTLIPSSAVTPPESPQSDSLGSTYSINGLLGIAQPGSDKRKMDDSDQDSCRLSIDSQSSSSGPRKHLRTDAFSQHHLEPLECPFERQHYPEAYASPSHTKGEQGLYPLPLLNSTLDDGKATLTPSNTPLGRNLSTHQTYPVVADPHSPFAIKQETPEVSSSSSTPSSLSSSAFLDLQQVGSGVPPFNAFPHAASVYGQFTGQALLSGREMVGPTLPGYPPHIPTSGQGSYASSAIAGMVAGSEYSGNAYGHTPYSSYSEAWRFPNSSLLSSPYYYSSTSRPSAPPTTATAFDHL
# T4 sequence (P08183 whole entry): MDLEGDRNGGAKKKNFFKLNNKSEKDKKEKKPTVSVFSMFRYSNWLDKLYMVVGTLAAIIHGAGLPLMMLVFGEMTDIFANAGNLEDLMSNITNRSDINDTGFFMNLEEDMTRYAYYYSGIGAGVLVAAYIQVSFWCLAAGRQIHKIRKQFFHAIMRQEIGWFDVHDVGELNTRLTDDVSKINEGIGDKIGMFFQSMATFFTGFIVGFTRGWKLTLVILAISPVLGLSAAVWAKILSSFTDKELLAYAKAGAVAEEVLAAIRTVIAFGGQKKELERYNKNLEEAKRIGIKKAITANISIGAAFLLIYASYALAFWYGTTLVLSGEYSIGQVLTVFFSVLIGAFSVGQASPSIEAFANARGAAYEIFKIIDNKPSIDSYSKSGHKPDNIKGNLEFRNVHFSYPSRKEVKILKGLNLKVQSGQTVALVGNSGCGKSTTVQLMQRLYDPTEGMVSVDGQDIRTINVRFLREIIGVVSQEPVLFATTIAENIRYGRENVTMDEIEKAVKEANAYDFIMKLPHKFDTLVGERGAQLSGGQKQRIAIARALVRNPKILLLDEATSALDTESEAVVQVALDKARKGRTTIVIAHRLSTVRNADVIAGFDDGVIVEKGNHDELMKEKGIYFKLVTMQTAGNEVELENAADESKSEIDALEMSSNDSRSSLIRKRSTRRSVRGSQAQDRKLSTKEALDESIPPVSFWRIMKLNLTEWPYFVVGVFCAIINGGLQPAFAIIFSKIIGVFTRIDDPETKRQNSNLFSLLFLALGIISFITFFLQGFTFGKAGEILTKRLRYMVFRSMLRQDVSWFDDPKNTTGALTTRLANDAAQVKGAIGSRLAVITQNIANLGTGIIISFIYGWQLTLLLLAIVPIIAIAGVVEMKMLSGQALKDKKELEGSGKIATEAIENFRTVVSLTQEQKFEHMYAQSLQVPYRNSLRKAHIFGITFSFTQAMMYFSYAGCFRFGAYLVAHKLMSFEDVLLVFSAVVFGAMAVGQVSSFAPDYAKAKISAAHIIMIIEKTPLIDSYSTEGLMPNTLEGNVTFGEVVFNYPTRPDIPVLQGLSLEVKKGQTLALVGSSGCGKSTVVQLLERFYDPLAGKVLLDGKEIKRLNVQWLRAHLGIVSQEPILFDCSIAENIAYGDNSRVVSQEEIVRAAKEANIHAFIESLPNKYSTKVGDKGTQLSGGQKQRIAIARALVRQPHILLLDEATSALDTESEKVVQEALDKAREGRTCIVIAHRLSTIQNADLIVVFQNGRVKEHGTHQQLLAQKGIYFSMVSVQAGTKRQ
# Sequence of DNA repair protein RAD52 homolog (P43351 whole entry): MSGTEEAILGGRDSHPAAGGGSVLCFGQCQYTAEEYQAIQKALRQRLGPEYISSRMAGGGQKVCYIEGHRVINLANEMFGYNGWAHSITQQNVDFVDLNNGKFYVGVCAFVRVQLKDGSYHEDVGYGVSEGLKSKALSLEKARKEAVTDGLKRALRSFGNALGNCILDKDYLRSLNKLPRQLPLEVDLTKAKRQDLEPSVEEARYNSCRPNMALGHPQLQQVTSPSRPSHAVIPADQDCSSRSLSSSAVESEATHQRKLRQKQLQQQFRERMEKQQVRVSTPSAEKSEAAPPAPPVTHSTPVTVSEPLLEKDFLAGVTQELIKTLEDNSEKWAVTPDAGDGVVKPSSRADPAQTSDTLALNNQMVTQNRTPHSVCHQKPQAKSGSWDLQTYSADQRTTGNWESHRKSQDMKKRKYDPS
# Sequence of Beta-lactamase (Salmonella choleraesuis (strain SC-B67), UniProt Q5J463) (Q5J463 whole entry): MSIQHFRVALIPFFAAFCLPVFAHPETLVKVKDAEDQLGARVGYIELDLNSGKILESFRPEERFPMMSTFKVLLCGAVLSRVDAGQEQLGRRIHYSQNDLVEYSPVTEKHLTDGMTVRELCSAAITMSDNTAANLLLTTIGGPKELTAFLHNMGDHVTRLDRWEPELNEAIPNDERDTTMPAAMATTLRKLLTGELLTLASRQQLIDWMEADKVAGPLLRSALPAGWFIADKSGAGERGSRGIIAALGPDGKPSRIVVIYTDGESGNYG
# Sequence of Steroidogenic factor 1 (Q13285 whole entry): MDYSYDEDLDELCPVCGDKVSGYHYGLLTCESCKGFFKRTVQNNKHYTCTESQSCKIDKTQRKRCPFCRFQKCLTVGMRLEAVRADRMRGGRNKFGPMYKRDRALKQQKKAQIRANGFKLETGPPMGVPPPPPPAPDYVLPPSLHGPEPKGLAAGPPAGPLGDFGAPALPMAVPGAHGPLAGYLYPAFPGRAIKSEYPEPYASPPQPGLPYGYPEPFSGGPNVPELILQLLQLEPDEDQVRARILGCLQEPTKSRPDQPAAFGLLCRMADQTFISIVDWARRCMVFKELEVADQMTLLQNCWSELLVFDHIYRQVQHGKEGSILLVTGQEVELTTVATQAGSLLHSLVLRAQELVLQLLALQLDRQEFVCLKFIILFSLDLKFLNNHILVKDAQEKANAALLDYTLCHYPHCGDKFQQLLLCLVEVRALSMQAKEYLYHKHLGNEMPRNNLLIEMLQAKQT
# Sequence of Beta Lactamase (Q932Y6 whole entry): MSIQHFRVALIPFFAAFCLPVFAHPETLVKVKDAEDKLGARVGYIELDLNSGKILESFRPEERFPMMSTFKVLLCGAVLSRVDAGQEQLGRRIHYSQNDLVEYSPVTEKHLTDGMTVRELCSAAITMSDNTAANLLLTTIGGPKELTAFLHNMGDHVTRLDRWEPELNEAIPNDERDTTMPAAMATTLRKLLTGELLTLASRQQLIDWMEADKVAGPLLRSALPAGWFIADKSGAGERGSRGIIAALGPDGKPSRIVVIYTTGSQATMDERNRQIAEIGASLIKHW
# Sequence of Nuclear receptor subfamily 5 group A member 2 (O00482 whole entry): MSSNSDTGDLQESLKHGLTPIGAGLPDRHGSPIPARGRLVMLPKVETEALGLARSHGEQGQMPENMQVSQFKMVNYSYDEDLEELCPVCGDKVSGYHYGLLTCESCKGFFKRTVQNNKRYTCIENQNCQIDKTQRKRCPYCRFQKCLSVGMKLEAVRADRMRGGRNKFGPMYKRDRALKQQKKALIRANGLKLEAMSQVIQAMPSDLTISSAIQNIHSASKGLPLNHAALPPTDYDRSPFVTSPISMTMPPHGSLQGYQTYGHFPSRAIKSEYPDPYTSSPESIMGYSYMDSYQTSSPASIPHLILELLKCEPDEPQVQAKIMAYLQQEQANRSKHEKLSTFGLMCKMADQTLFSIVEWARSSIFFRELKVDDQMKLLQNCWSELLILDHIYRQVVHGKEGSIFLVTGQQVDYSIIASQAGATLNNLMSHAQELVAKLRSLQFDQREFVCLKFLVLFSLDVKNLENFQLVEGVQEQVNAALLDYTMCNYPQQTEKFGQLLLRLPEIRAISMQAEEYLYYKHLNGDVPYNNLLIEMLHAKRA
# Sequence of Low molecular weight phosphotyrosine protein phosphatase (P24666 whole entry, the tested form may be a part): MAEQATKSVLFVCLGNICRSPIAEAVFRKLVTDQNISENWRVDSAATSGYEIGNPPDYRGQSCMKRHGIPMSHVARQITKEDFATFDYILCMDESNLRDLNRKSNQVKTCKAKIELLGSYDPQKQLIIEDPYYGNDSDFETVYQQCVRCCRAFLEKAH
# Sequence of Beta-lactamase (Pseudomonas aeruginosa, UniProt Q79MP6) (Q79MP6 whole entry): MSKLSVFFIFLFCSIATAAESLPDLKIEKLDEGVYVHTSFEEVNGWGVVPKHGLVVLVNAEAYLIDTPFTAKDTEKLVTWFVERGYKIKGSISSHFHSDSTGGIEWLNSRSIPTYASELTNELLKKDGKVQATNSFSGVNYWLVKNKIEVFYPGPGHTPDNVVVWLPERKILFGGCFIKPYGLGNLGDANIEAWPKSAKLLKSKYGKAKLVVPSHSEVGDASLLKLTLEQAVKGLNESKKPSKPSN
smiles,measurement,setting,value
COc1cc2ccccc2cc1C(=O)N(CCN(C)C)c1nc2c(OC)ccc(OC)c2s1,AC50,[1],18.1 µM (active)
same,AC50,[2],100 µM (inactive)
same,AC50,[3],7.36 µM (active)
CCCN(CC(=O)Nc1ccc(C(C)=O)cc1)CC(=O)Nc1ccccc1C,IC50,[4],12 µM (inactive)
same,IC50,[5],0.941 µM (active)
same,IC50,[6],35.9 µM (inactive)
CC(C)(C)c1ccc(-c2c(C(=O)O)c(C(=O)O)c3n2CSC3)cc1,IC50,[7],35.1 µM (inactive)
same,IC50,[8],> 59.6 µM (inactive)
Cc1cc(N2CCN(S(=O)(=O)c3ccc(Cl)c(Cl)c3)CC2)c2ccccc2n1,IC50,[9],19.5 µM (active)
same,IC50,[10],35.8 µM (inactive)
same,AC50,[11],50.5 µM (active)
CC(C)N(C(=O)[C@H]1C[C@H](CC(=O)NCCC2=CCCCC2)C(=O)N2CCc3c([nH]c4ccc(Cl)cc34)[C@]12C)C(C)C,IC50,[12],3.6 µM (active)
same,EC50,[13],> 53 µM (inactive)
same,IC50,[14],4.28 µM (active)
O=C(Cc1ccccc1)N1CCN(c2cc(-c3ccccc3)nc3cc(-c4cccc(Cl)c4)nn23)CC1,EC50,[15],7.42 µM (active)
same,EC50,[16],3.62 µM (active)
C[C@H](CO)N1C[C@H](C)[C@H](CN(C)Cc2ccccc2)Oc2c(NC(=O)c3ccncc3)cccc2C1=O,IC50,[17],20.6 µM (inactive)
same,IC50,[18],> 100 µM (inactive)
same,IC50,[19],20.6 µM (inactive)
same,IC50,[20],> 100 µM (inactive)
same,AC50,[21],0.208 µM (active)
same,IC50,[22],75.4 µM (inactive)
CC1CC(C)CC(C)C(O)C(C#N)=CC=CCC(C2CCCC2C(=O)O)OC(=O)CC(O)C(C)C1 (stereo not drawn),AC50,[23],< 0.26 µM (active)
same,AC50,[24],10.2 µM (active)
same,AC50,[25],1.08 µM (active)
same,IC50,[26],49.8 µM (inactive)
same,IC50,[27],49.8 µM (inactive)
same,AC50,[28],< 0.26 µM (active)

# Source: ChEMBL document CHEMBL1201862, “PubChem BioAssay data set” (2004)
